{"source": "patent US12576039B2", "about": "“Lipid-polymer compositions and methods of use” (Max Biology Co. Ltd., priority 2020, dated 2026)", "key": {"[1]": {"assay": "Saturated solubility of CBD (HPLC)", "assay_type": "physicochemical", "conditions": "formulations containing PLURONIC F127 from 7% to 11%, excess CBD stirred overnight at room temperature, filtered 0.45 μm", "protocol": "To determine the saturated solubility of CBD in the presence of PLURONIC® F127, PLURONIC® formulations were made as above. To each formulation excess CBD was added and left stirring overnight on a magnetic stirrer at room temperature (FIG. 17). To see how addition of lipids affects saturated solubility, lipids were added to 5% PLURONIC® F127 containing excess CBD using the ethanol injection method. For this, a 19G needle was immersed into the formulation being stirred, and 8.11% (volume of sample end volume) of the lipid stock formulation was injected at the rate of 750 μl/7 sec. Each formulation at this point was then left stirring overnight as above. On the following day, the formulations were filtered using 0.45 μm syringe filters and the amount of CBD dissolved was quantified using high pressure liquid chromatography.\nCBD content was determined by diluting the samples in acetonitrile (ACN) (as needed) and then analysing them using HPLC. Calibration curve and sample quantification was carried out using an Agilent Infinity 1260 system. An Eclipse Plus C18, 4.6×150 mm, 3.5 μm column was purchased from […]. The mobile phase used was ACN:Water (82:18 v/v). HPLC analysis was carried at room temperature at a flow rate of 1 ml/min and an injection volume of 20 μl. […] Particle size and polydispersity was determined using a Brookhaven dynamic light scattering system."}, "[2]": {"conditions": "very low solubility in water, high lipophilicity; cited from earlier work"}}}
{"smiles": "C=C(C)[C@@H]1CCC(C)=C[C@H]1c1c(O)cc(CCCCC)cc1O", "note": "[CBD, cannabidiol]", "values": [{"measurement": "peak CBD concentration (saturated solubility)", "setting": "[1]", "result": "approximately 2 % w/v"}, {"measurement": "Biopharmaceutical Classification System (BCS) classification", "setting": "[2]", "result": "class 2"}]}
